{"source": "ChEMBL document CHEMBL4507293", "about": "(2021)", "key": {"[1]": {"biological_target": "Rod cGMP-specific 3',5'-cyclic phosphodiesterase subunit alpha (Homo sapiens, UniProt P16499)", "sequence (P16499 whole entry)": "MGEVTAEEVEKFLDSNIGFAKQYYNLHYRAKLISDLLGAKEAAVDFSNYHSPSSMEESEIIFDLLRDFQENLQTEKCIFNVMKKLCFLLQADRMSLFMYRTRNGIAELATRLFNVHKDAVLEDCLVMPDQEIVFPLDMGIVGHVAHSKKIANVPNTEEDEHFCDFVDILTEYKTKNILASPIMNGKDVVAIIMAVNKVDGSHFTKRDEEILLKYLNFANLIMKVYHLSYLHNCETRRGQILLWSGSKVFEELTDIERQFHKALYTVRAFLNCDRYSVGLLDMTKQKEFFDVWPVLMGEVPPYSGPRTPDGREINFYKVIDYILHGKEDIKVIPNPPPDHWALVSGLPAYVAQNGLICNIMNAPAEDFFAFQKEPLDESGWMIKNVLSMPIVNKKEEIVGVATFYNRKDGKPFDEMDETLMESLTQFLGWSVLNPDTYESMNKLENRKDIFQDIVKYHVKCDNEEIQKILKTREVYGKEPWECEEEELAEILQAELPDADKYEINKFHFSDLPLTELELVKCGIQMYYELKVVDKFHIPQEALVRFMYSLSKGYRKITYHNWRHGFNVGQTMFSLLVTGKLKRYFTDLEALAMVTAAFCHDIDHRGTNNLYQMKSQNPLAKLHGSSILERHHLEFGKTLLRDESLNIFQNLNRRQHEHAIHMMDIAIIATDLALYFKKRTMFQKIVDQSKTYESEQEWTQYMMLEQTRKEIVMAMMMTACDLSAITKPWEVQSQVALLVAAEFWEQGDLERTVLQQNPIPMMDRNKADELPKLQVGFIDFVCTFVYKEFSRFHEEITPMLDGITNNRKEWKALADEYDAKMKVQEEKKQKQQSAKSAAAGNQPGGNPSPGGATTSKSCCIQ", "assay": "Biochemical assay (PDE6A)"}, "[2]": {"biological_target": "Adenosine receptor A1 (Homo sapiens) (UniProt P30542)", "sequence (P30542 whole entry)": "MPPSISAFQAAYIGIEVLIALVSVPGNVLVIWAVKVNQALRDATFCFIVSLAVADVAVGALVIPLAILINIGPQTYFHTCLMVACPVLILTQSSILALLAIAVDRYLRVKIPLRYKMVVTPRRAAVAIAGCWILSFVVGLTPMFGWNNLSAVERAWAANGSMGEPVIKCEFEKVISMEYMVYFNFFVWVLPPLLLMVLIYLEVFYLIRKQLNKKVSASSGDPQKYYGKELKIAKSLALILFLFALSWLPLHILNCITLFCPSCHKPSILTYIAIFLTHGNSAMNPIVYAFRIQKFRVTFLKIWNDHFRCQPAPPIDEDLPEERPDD", "settings": "Compound concentration 10.0 uM; call rule not given here"}, "[3]": {"biological_target": "Platelet-activating factor receptor (Homo sapiens) (UniProt P25105)", "sequence (P25105 whole entry)": "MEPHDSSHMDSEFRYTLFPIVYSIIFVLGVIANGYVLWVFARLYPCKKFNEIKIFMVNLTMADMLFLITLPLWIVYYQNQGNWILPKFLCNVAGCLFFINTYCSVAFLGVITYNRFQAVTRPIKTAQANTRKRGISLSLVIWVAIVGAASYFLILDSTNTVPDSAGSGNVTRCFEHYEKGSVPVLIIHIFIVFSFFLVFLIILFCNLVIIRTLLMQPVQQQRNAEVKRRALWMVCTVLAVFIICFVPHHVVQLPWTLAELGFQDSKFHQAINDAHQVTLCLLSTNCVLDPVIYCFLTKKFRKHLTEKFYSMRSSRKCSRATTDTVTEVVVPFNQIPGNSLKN", "assay": "Inhibition of Platelet Activating Factor (PAF) at 10 µM in the Eurofins-Panlabs radioligand binding assay (Eurofins_assay_265010)", "settings": "Compound concentration 10.0 uM"}, "[4]": {"biological_target": "Kappa-type opioid receptor (Homo sapiens) (UniProt P41145)", "sequence (P41145 whole entry)": "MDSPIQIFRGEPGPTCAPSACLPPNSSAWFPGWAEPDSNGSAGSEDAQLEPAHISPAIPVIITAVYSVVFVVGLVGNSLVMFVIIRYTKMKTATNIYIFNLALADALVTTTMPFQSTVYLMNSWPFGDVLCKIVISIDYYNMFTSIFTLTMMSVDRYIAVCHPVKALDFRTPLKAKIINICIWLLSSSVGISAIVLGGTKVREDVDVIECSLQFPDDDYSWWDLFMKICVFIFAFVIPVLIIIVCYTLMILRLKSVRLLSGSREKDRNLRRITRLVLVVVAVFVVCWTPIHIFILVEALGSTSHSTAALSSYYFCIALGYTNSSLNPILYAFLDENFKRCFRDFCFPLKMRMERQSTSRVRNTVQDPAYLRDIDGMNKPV", "settings": "Compound concentration 10.0 uM"}, "[5]": {"biological_target": "Nociceptin receptor (Homo sapiens) (UniProt P41146)", "sequence (P41146 whole entry)": "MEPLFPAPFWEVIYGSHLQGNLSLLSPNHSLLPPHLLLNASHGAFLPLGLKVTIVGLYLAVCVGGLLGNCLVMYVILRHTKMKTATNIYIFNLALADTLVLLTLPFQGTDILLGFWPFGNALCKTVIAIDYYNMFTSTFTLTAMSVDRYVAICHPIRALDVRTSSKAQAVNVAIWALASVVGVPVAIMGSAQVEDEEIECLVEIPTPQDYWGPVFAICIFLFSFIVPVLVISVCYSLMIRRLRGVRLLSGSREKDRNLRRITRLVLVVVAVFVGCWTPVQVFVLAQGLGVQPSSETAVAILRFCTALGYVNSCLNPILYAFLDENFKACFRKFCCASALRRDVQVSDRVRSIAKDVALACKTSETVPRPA", "assay": "Orphanin ORL1 Eurofins-Panlabs radioligand binding assay", "settings": "Compound concentration 10.0 uM"}, "[6]": {"biological_target": "Melanin-concentrating hormone receptor 1 (Homo sapiens) (UniProt Q99705)", "sequence (Q99705 whole entry)": "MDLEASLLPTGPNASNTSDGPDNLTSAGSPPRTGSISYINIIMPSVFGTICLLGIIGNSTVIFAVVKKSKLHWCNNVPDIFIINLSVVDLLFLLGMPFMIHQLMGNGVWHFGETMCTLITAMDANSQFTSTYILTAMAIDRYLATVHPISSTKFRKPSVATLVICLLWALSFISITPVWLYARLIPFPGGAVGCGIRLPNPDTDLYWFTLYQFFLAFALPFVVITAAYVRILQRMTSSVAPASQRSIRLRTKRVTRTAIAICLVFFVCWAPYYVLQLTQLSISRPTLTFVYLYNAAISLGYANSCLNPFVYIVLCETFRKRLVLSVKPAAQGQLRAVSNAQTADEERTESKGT", "assay": "Melanin-Concentrating Hormone MCH1 (SLC1) Eurofins-Panlabs radioligand binding assay", "parameters": "ligand concentration 0.05 nM", "settings": "Compound concentration 10.0 uM"}, "[7]": {"biological_target": "Beta-1 adrenergic receptor (Homo sapiens) (UniProt P08588)", "sequence (P08588 whole entry, looked up)": "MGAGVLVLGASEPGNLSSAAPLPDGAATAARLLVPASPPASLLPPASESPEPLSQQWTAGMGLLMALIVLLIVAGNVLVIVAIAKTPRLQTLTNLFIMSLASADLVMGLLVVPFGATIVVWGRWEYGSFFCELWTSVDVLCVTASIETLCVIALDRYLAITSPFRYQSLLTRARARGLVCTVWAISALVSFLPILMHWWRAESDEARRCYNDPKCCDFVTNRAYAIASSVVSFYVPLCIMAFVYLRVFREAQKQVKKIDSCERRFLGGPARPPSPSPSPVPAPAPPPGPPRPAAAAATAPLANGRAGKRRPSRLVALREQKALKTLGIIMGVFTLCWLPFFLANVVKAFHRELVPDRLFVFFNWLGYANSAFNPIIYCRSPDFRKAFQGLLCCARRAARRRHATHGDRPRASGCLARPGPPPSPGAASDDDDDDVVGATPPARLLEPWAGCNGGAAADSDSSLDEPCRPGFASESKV", "settings": "Compound concentration 10.0 uM"}, "[8]": {"biological_target": "T1, Alpha-2B adrenergic receptor (Homo sapiens) (UniProt P18089)", "T1 sequence (whole entry)": "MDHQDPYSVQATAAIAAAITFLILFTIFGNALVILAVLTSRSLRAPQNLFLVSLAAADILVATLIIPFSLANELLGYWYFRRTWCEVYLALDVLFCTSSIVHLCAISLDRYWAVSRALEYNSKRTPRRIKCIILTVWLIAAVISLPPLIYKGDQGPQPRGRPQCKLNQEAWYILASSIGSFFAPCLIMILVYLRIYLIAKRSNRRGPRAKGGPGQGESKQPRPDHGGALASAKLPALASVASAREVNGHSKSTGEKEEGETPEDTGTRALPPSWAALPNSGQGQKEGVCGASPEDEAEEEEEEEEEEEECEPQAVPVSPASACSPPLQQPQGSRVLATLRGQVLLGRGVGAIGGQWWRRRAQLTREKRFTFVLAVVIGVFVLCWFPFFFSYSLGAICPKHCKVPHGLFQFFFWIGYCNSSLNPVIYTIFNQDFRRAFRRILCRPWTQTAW", "settings": "Compound concentration 10.0 uM"}, "[9]": {"biological_target": "cAMP and cAMP-inhibited cGMP 3',5'-cyclic phosphodiesterase 10A (Homo sapiens, UniProt Q9Y233)", "sequence (Q9Y233 whole entry)": "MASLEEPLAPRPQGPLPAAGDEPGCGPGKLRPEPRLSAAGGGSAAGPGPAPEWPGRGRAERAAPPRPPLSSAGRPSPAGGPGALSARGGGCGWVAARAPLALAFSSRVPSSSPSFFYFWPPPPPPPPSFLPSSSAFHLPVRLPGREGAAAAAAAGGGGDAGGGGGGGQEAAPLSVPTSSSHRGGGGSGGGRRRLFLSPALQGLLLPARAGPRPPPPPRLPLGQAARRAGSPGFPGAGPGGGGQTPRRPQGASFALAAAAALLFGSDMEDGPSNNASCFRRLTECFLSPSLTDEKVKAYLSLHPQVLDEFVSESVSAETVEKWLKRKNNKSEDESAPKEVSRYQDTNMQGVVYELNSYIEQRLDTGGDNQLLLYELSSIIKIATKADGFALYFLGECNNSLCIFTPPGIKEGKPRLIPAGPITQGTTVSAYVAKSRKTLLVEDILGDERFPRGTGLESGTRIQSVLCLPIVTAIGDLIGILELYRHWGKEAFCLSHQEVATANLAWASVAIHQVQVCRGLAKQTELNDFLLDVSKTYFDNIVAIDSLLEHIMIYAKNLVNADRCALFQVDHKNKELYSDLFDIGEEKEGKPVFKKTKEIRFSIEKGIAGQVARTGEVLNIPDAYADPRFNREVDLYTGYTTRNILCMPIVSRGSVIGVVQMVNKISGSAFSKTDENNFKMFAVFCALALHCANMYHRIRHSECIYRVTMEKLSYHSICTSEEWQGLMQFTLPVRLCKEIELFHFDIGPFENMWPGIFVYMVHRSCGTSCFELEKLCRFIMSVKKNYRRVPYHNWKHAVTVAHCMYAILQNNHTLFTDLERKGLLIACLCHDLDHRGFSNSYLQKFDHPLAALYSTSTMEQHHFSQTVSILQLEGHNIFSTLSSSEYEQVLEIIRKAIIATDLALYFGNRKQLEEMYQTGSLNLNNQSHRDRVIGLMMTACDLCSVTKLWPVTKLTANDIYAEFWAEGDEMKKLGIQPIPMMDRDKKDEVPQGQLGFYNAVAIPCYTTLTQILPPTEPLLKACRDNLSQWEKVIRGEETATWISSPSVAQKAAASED", "assay": "Biochemical assay (PDE10A)"}}}
{"smiles": "COCCOc1nc(-c2ccc(Cl)nc2)nc2c1CN(C(=O)c1ncn3ccccc13)CC2", "note": "[THPP-1]", "values": [{"measurement": "Ki", "setting": "[1]", "result": 44, "unit": "nM"}, {"measurement": "inhibition", "setting": "[2]", "result": 37, "unit": "%"}, {"measurement": "inhibition", "setting": "[3]", "result": -4, "unit": "%"}, {"measurement": "inhibition", "setting": "[4]", "result": 2, "unit": "%"}, {"measurement": "inhibition", "setting": "[5]", "result": 5, "unit": "%"}, {"measurement": "inhibition", "setting": "[6]", "result": 4, "unit": "%"}, {"measurement": "inhibition", "setting": "[7]", "result": -3, "unit": "%"}, {"measurement": "inhibition", "setting": "[8]", "result": 1, "unit": "%"}]}
{"smiles": "CC(C)CC(=O)N1CCc2nc(-c3ccc(Br)cc3)nc(N(C)Cc3ccccc3)c2C1", "note": "[THPP-1-NC]", "values": [{"measurement": "Ki", "setting": "[9]", "result": "522 nM (not active)"}]}
